In publication PMC7835894 (Molecules, 2021):

Tested on: Caco-2
Assay: MTT antiproliferation assay
Assay type: cell-based, human
Details: Homo sapiens; Caco-2, MTT, 24 h, single agent, mean ± SEM
Experimental: The antiproliferation and cytotoxicity were assessed using 3-(4,5-dimethylthiazol-2-yl)-2,5-diphenyltetrazolium bromide (MTT, Serva) colorimetric assay. To investigate the antiproliferation, all cell lines were seeded at a density of 20,000 cells per well in 96-well plates and allowed to adhere overnight. […] These concentrations were prepared by diluting the stock solutions with serum-free culture media. The negative control cells were those treated with 0.1% DMSO solvent alone. The treated cells were handled in reduced light and maintained under standard culture growth conditions for 24 h. After the incubation period, MTT powder was prepared as a stock solution (5 mg/mL) and 20 μL of the MTT working reagent (final concentration 0.5 mg/mL) was added to each well. This was followed by incubation with MTT reagent for 4 h in a humidified atmosphere (37 °C, 5% CO2) with subsequent addition of 150 μL of DMSO solubilizing solvent and incubation for 20 min. The absorbance of solubilized violet formazan crystals was measured at 540 nm with Biotek 800 TS microplate reader. IC50 was calculated as the concentration of retinoid that produced 50% cell growth inhibition. For cytotoxicity assessment, WI-38 normal human fibroblast cells were used for the calculation of SI which is the ratio of IC50 retinoid (WI-38)/IC50 retinoid (cancer cell line).

- IC50: 18.4 ± 0.6 µM
Compound: O=c1[nH]cc(F)c(=O)[nH]1 [5-FU, 5-fluorouracil, reference compound]
